Measurements from patent publication US8039514B2, “Sulfonamide compounds and use thereof” (Asahi Kasei Pharma Corporation, priority 2008, dated 2011).

Each compound was assayed against T1, human calcium-sensing receptor (CaSR) (Homo sapiens, UniProt P41180) (assay: intracellular Ca assay, CaSR antagonist activity in HEK293/hCaSR cells). Details: Fura2-AM, inhibition of response to calcium chloride ligand solution, read-out: IC50 values according to the intracellular Ca assay (CaSR antagonist activity).
T1 construct: expressed in transfected cells
T1 sequence (P41180 20-1078): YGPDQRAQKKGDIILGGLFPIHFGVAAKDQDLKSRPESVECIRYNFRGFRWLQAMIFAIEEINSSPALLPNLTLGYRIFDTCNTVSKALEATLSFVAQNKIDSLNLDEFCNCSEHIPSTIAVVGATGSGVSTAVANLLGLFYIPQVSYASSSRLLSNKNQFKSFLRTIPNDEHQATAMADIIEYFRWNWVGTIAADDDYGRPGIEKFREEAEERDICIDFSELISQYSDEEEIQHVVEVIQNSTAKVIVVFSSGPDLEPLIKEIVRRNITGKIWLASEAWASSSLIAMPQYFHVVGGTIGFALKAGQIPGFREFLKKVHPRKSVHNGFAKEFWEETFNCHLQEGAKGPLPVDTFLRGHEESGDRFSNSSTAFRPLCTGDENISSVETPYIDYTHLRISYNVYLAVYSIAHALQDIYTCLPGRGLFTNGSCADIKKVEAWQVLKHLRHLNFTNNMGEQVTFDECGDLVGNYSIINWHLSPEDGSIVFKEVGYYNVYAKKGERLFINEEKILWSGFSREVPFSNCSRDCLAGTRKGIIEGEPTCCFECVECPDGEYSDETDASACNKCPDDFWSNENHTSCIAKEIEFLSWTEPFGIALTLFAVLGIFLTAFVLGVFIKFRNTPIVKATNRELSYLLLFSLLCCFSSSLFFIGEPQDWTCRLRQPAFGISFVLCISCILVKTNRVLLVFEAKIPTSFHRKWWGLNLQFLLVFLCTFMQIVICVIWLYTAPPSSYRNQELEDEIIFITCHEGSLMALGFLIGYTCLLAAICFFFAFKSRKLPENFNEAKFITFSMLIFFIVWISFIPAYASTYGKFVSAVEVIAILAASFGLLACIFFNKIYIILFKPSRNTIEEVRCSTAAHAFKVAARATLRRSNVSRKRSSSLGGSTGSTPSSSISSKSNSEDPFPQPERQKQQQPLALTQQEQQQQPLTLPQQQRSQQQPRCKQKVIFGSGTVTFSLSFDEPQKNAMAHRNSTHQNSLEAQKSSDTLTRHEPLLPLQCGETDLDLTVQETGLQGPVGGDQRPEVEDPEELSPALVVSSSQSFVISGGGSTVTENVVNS
Type: cell-based
Procedure: HEK293 cells stably expressing human calcium-sensing receptor (CaSR) (termed HEK293/hCaSR cells) were used. HEK293/hCaSR cells were cultured in a culture medium [DMEM medium containing 0.5 mg/mL Geneticin, 50 Unit/mL penicillin, 50 μg/mL streptomycin and 10% fetal bovine serum (FBS), all manufactured by Invitrogen] to semiconfluent in an incubator at 37° C. under 5% carbon dioxide atmosphere.
Cultured cells were washed with phosphate buffered saline (PBS(−), manufactured by Dainippon Sumitomo Pharmaceutical Company) which had been prewarmed to 37° C., added with PBS(−) containing 10 mM ethylenediamine tetraacetic acid (EDTA), and then incubated in an incubator at 37° C. for 10 minutes. After adding the culture medium to separate the cells, cell suspension was transferred to a centrifuge tube. Cells were collected by centrifuge at 1,500 rpm for 3 minutes, and resuspended in Ca assay buffer [20 mM HEPES buffer (pH 7.4), 115 mM sodium chloride, 5.4 mM potassium chloride, 0.8 mM magnesium chloride, 0.8 mM calcium chloride, 13.8 mM D(+)-glucose (all manufactured by Wako Pure Chemicals) and 0.1% bovine serum albumin (manufactured by SIGMA)] containing 0.2% Pluronic F-127 (manufactured by Molecular Probes) and […] Fura2-AM (manufactured by DOJINDO LABORATORIES) to obtain a cell suspension of 5×10^6 cells/mL. After incubating at 37° C. for 30 minutes, the cells were washed twice with the Ca assay buffer and suspended in the same buffer to obtain a cell suspension of 1×10^6 cells/60 μL. 60 μL of the cell suspension was aliquoted to each well of a 96 well UV microplate (manufactured by Corning Co.) to give a cell plate.
The test compound was diluted with the Ca assay buffer to five times the final concentration and then 80 μL of the diluted compound was applied to each well of a 96 well round bottomed microplate (manufactured by Corning Co.) to give a sample plate. 80 μL of the Ca assay buffer containing 7.5 mM calcium chloride (i.e., ligand solution) was applied to each well of a 96 well round bottomed microplate to give a ligand plate. Then, thus prepared sample plate, ligand plate, and the cell plate were placed in Functional Drug Screening System (FDSS) 4000 (manufactured by Hamamatsu Photonics K.K.) which had been preswitched on and prewarmed to 37° C. Measurements were then carried out as follows. After incubating the cell plate for 180 seconds, fluorescence intensity was measured every two seconds (excitation wavelength; 340 nm and 380 nm, measurement wavelength; 500 nm). After the measurement for 40 seconds, 20 μL of the test compound solution from the sample plate was added to the cell plate, followed by continuous measurement for 160 seconds. Then, 20 μL of the ligand solution from the ligand plate was added to the cell plate, followed by continuous measurement for 100 seconds.
Amount of change in intracellular Ca concentration is indicated as a peak height of the ratio of the fluorescence intensity with excitation of 340 nm and 380 nm (i.e., fluorescence intensity with excitation at 340 nm/fluorescence intensity with excitation at 380 nm) that is obtained from the difference between the maximum ratio after adding the ligand solution and the ratio before adding the ligand solution. Further, when the peak height obtained from the Ca assay buffer containing no test compound has inhibition ratio of 0% while the peak height obtained from the Ca assay buffer containing no calcium chloride as a ligand solution has inhibition ratio of 100%, inhibition ratio for each test compound (i.e., CaSR antagonist activity) was calculated.
CN(C[C@H](O)CNC(C)(C)Cc1ccc2ccccc2c1)S(=O)(=O)c1ccc(-c2cc(C(=O)O)cc([N+](=O)[O-])c2)cc1 [Exp. 3-40, (R)-4′-(N-(2-hydroxy-3-(2-methyl-1-(naphthalen-2-yl)propan-2-ylamino)propyl)-N-methylsulfamoyl)-5-nitrobiphenyl-3-carboxylic acid] was tested, and the IC50 was 300 to 1000 nM.
CN(C[C@H](O)CNC(C)(C)Cc1ccc2ccccc2c1)S(=O)(=O)c1ccc(-c2ccc(NC(=O)CCC(=O)O)cc2)cc1 [Exp. 3-43, (R)-4-(4′-(N-(2-hydroxy-3-(2-methyl-1-(naphthalen-2-yl)propan-2-ylamino)propyl)-N-methylsulfamoyl)biphenyl-4-ylamino)-4-oxobutanoic acid] showed an IC50 of 1000 to 3000 nM.
CN(C[C@H](O)CNC(C)(C)Cc1ccc2ccccc2c1)S(=O)(=O)c1ccc(-c2ccccc2C=CC(=O)O)cc1 [Exp. 3-44, (R)-3-(4′-(N-(2-hydroxy-3-(2-methyl-1-(naphthalen-2-yl)propan-2-ylamino)propyl)-N-methylsulfamoyl)biphenyl-2-yl)acrylic acid] showed an IC50 of 1000 to 3000 nM.
With CN(C[C@H](O)CNC(C)(C)Cc1ccc2ccccc2c1)S(=O)(=O)c1ccc(-c2ccc(C(=O)O)c(O)c2)cc1 [Exp. 3-46, (R)-3-hydroxy-4′-(N-(2-hydroxy-3-(2-methyl-1-(naphthalen-2-yl)propan-2-ylamino)propyl)-N-methylsulfamoyl)biphenyl-4-carboxylic acid] the IC50 was 300 to 1000 nM.
CN(C[C@H](O)CNC(C)(C)Cc1ccc2ccccc2c1)S(=O)(=O)c1ccc(-c2ccc(SCC(=O)O)cc2)cc1 [Exp. 3-47, (R)-2-(4′-(N-(2-hydroxy-3-(2-methyl-1-(naphthalen-2-yl)propan-2-ylamino)propyl)-N-methylsulfamoyl)biphenyl-4-ylthio)acetic acid] was tested, and the IC50 was 300 to 1000 nM.
Work on CN(C[C@H](O)CNC(C)(C)Cc1ccc2ccccc2c1)S(=O)(=O)c1ccc(-c2cc(F)c(C(=O)O)c(F)c2)cc1 [Exp. 3-48, (R)-3,5-difluoro-4′-(N-(2-hydroxy-3-(2-methyl-1-(naphthalen-2-yl)propan-2-ylamino)propyl)-N-methylsulfamoyl)biphenyl-4-carboxylic acid] yielded an IC50 of at most 300 nM.
CN(C[C@H](O)CNC(C)(C)CC1Cc2ccccc2C1)S(=O)(=O)c1cccc(-c2ccc(C(=O)O)cc2)c1 [Exp. 3-50, (R)-3′-(N-(3-(1-(2,3-dihydro-1H-inden-2-yl)-2-methylpropan-2-ylamino)-2-hydroxypropyl)-N-methylsulfamoyl)biphenyl-4-carboxylic acid] was tested, and the IC50 was at most 300 nM.
Compound Cc1ccc(-c2cccc(S(=O)(=O)N(C)C[C@H](O)CNC(C)(C)CC3Cc4ccccc4C3)c2)cc1C(=O)O [Exp. 3-51, (R)-3′-(N-(3-(1-(2,3-dihydro-1H-inden-2-yl)-2-methylpropan-2-ylamino)-2-hydroxypropyl)-N-methylsulfamoyl)-4-methylbiphenyl-3-carboxylic acid] has an IC50 of 300 to 1000 nM.
Cc1cc(-c2cccc(S(=O)(=O)N(C)C[C@H](O)CNC(C)(C)CC3Cc4ccccc4C3)c2)ccc1C(=O)O [Exp. 3-52, (R)-3′-(N-(3-(1-(2,3-dihydro-1H-inden-2-yl)-2-methylpropan-2-ylamino)-2-hydroxypropyl)-N-methylsulfamoyl)-3-methylbiphenyl-4-carboxylic acid] gave an IC50 of 300 to 1000 nM.
Work on CN(C[C@H](O)CNC(C)(C)CC1Cc2ccccc2C1)S(=O)(=O)c1cccc(-c2ccc(C(=O)O)c(F)c2)c1 [Exp. 3-53, (R)-3′-(N-(3-(1-(2,3-dihydro-1H-inden-2-yl)-2-methylpropan-2-ylamino)-2-hydroxypropyl)-N-methylsulfamoyl)-3-fluorobiphenyl-4-carboxylic acid] yielded an IC50 of at most 300 nM.
Work on CN(C[C@H](O)CNC(C)(C)CC1Cc2ccccc2C1)S(=O)(=O)c1cccc(-c2ccc(C(=O)O)c(Cl)c2)c1 [Exp. 3-54, (R)-3-chloro-3′-(N-(3-(1-(2,3-dihydro-1H-inden-2-yl)-2-methylpropan-2-ylamino)-2-hydroxypropyl)-N-methylsulfamoyl)biphenyl-4-carboxylic acid] yielded an IC50 of at most 300 nM.
CN(C[C@H](O)CNC(C)(C)CC1Cc2ccccc2C1)S(=O)(=O)c1cccc(-c2ccc(C(=O)O)cc2F)c1 [Exp. 3-55, (R)-3′-(N-(3-(1-(2,3-dihydro-1H-inden-2-yl)-2-methylpropan-2-ylamino)-2-hydroxypropyl)-N-methylsulfamoyl)-2-fluorobiphenyl-4-carboxylic acid] gave an IC50 of at most 300 nM.
For CN(C[C@H](O)CNC(C)(C)CC1Cc2ccccc2C1)S(=O)(=O)c1cccc(-c2ccc(C=CC(=O)O)cc2)c1 [Exp. 3-56, (R)-3-(3′-(N-(3-(1-(2,3-dihydro-1H-inden-2-yl)-2-methylpropan-2-ylamino)-2-hydroxypropyl)-N-methylsulfamoyl)biphenyl-4-yl)acrylic acid], the IC50 was 300 to 1000 nM.
CN(C[C@H](O)CNC(C)(C)CC1Cc2ccccc2C1)S(=O)(=O)c1cccc(-c2cccc(C=CC(=O)O)c2)c1 [Exp. 3-58, (R)-3-(3′-(N-(3-(1-(2,3-dihydro-1H-inden-2-yl)-2-methylpropan-2-ylamino)-2-hydroxypropyl)-N-methylsulfamoyl)biphenyl-3-yl)acrylic acid] showed an IC50 of at most 300 nM.
For CN(C[C@H](O)CNC(C)(C)CC1Cc2ccccc2C1)S(=O)(=O)c1cccc(-c2ccc(NC(=O)CCC(=O)O)cc2)c1 [Exp. 3-59, (R)-4-(3′-(N-(3-(1-(2,3-dihydro-1H-inden-2-yl)-2-methylpropan-2-ylamino)-2-hydroxypropyl)-N-methylsulfamoyl)biphenyl-4-ylamino)-4-oxobutanoic acid], the IC50 was at most 300 nM.
In the case of CN(C[C@H](O)CNC(C)(C)CC1Cc2ccccc2C1)S(=O)(=O)c1cccc(-c2cc(F)cc(C(=O)O)c2)c1 [Exp. 3-60, (R)-3′-(N-(3-(1-(2,3-dihydro-1H-inden-2-yl)-2-methylpropan-2-ylamino)-2-hydroxypropyl)-N-methylsulfamoyl)-5-fluorobiphenyl-3-carboxylic acid], the IC50 is reported as at most 300 nM.
With Cc1ccc(CC(C)(C)NC[C@@H](O)CN(C)S(=O)(=O)c2cccc(-c3cccc(C(=O)O)c3)c2)cc1F [Exp. 3-63, (R)-3′-(N-(3-(1-(3-fluoro-4-methylphenyl)-2-methylpropan-2-ylamino)-2-hydroxypropyl)-N-methylsulfamoyl)biphenyl-3-carboxylic acid] the IC50 was 1000 to 3000 nM.
